38 compounds from patent US7998978B2 (Pfizer Inc., priority 2006, dated 2011) can be followed below.

For this experiment, the target named is T1, JNK1α1 (Homo sapiens, UniProt P45983).
T1 construct: catalytic domain containing amino acids 1-364 and N-terminal hexahistidine tag; hexahistidine (His6) (N); made in house; host or cells: E. coli BL21 (DE3)
Nature of the experiment: Coupled spectrophotometric (PK/LDH) JNK1α1 assay: % inhibition and Ki determination. The experiment is classed as biochemical. The conditions noted are these: JNK-1. In outline:
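Initial rates were taken from the absorbance decrease at 340 nm at 30° C. Ki was fitted with a tight-binding model over 11 concentrations (top 100 μM); single-point inhibition was tested at 1 or 10 μM.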

T1 sequence (P45983 1-364): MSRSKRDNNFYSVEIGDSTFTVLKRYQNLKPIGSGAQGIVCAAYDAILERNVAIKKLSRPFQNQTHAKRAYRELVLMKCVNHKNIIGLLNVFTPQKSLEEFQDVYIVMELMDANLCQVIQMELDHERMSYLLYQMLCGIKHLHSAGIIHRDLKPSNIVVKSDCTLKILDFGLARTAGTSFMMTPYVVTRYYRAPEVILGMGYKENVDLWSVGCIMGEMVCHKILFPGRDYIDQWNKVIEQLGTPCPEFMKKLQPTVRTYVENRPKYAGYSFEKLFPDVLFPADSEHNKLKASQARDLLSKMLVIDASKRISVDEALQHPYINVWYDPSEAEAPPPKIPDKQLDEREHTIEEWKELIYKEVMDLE

As a reminder, the Ki is a dissociation constant, usually derived from enzyme kinetics or from competition with a known ligand. A high value points to weaker binding. Compound `c1cc(OC2CCOC2)c2nc(NC3CCOCC3)ncc2c1` (centres unmarked) [Example 173, 8-(tetrahydrofuran-3-yloxy)-N-(tetrahydro-2H-pyran-4-yl)quinazolin-2-amine] gave a Ki of 1910 nM.

As to `FC1(F)CCC(Nc2ncc3cccc(OC4CCOC4)c3n2)CC1` (centres unmarked) [Example 174, N-(4,4-difluorocyclohexyl)-8-(tetrahydrofuran-3-yloxy)quinazolin-2-amine], the affinity corresponds to a Ki of 999 nM.

In turn, `c1cc(OC2CCOCC2)c2nc(NC3CCOCC3)ncc2c1` [Example 175, N-(tetrahydro-2H-pyran-4-yl)-8-(tetrahydro-2H-pyran-4-yloxy)quinazolin-2-amine] gave a Ki of 880 nM.

With `FC1(F)CCC(Nc2ncc3cccc(OC4CCOCC4)c3n2)CC1` [Example 176, N-(4,4-difluorocyclohexyl)-8-(tetrahydro-2H-pyran-4-yloxy)quinazolin-2-amine], the affinity, expressed as Ki, was 422 nM.

As for `N[C@H]1CC[C@H](Nc2ncc3cccc(OC4CCOC4)c3n2)CC1` (stereo partly drawn) [Example 177, trans-N-[8-(tetrahydrofuran-3-yloxy)quinazolin-2-yl]cyclohexane-1,4-diamine], the affinity, expressed as Ki, was 914 nM.

`N[C@H]1CC[C@H](Nc2ncc3cccc(OC4CCOCC4)c3n2)CC1` [Example 178, trans-N-[8-(tetrahydro-2H-pyran-4-yloxy)quinazolin-2-yl]cyclohexane-1,4-diamine] came in with a Ki of 744 nM.

In the case of `CC(=O)N[C@H]1CC[C@H](Nc2ncc3cccc(OC4CCOCC4)c3n2)CC1` [Example 179, N-(trans-4-{[8-(tetrahydro-2H-pyran-4-yloxy)quinazolin-2-yl]amino}cyclohexyl)acetamide], the Ki was 665 nM.

`CCC(=O)N[C@H]1CC[C@H](Nc2ncc3cccc(OC4CCOCC4)c3n2)CC1` [Example 180, N-(trans-4-{[8-(tetrahydro-2H-pyran-4-yloxy)quinazolin-2-yl]amino}cyclohexyl)propanamide] gave a Ki of 570 nM.

Compound `CC(C)C(=O)N[C@H]1CC[C@H](Nc2ncc3cccc(OC4CCOCC4)c3n2)CC1` [Example 181, 2-methyl-N-(trans-4-{[8-(tetrahydro-2H-pyran-4-yloxy)quinazolin-2-yl]amino}cyclohexyl)propanamide] showed a Ki of 780 nM.

`CS(=O)(=O)N[C@H]1CC[C@H](Nc2ncc3cccc(OC4CCOCC4)c3n2)CC1` [Example 182, N-(trans-4-{[8-(tetrahydro-2H-pyran-4-yloxy)quinazolin-2-yl]amino}cyclohexyl)methanesulfonamide] yielded a Ki of 146 nM.

Compound `CCS(=O)(=O)N[C@H]1CC[C@H](Nc2ncc3cccc(OC4CCOCC4)c3n2)CC1` [Example 183, N-(trans-4-{[8-(tetrahydro-2H-pyran-4-yloxy)quinazolin-2-yl]amino}cyclohexyl)ethanesulfonamide] had a Ki of 220 nM.

With `CC(=O)N[C@H]1CC[C@H](Nc2ncc3cccc(OC4CCOC4)c3n2)CC1` (stereo partly drawn) [Example 184, N-(trans-4-{[8-(tetrahydrofuran-3-yloxy)quinazolin-2-yl]amino}cyclohexyl)acetamide], the Ki was found to be 674 nM.

Compound `CCC(=O)N[C@H]1CC[C@H](Nc2ncc3cccc(OC4CCOC4)c3n2)CC1` (stereo partly drawn) [Example 185, N-(trans-4-{[8-(tetrahydrofuran-3-yloxy)quinazolin-2-yl]amino}cyclohexyl)propanamide] came in with a Ki of 885 nM.

`CC(C)C(=O)N[C@H]1CC[C@H](Nc2ncc3cccc(OC4CCOC4)c3n2)CC1` (stereo partly drawn) [Example 186, 2-methyl-N-(trans-4-{[8-(tetrahydrofuran-3-yloxy)quinazolin-2-yl]amino)cyclohexyl)propanamide] displayed a Ki of 607 nM.

The compound `CS(=O)(=O)N[C@H]1CC[C@H](Nc2ncc3cccc(OC4CCOC4)c3n2)CC1` (stereo partly drawn) [Example 187, N-(trans-4-{[8-(tetrahydrofuran-3-yloxy)quinazolin-2-yl]amino}cyclohexyl)methanesulfonamide] gave a Ki of 414 nM.

`CCS(=O)(=O)N[C@H]1CC[C@H](Nc2ncc3cccc(OC4CCOC4)c3n2)CC1` (stereo partly drawn) [Example 188, N-(trans-4-{[8-(tetrahydrofuran-3-yloxy)quinazolin-2-yl]amino}cyclohexyl)ethanesulfonamide]: the Ki was found to be 374 nM.

The compound `FCCN[C@H]1CC[C@H](Nc2ncc3cccc(OC4CCOCC4)c3n2)CC1` [Example 189, trans-N-(2-fluoroethyl)-N′-[8-(tetrahydro-2H-pyran-4-yloxy)quinazolin-2-yl]cyclohexane-1,4-diamine] gave a Ki of 877 nM.

For `CCN[C@H]1CC[C@H](Nc2ncc3cccc(OC4CCOCC4)c3n2)CC1` [Example 190, trans-N-ethyl-N′-[8-(tetrahydro-2H-pyran-4-yloxy)quinazolin-2-yl]cyclohexane-1,4-diamine], the Ki was found to be 342 nM.

In the case of `CC(C)N[C@H]1CC[C@H](Nc2ncc3cccc(OC4CCOCC4)c3n2)CC1` [Example 191, trans-N-isopropyl-N′-[8-(tetrahydro-2H-pyran-4-yloxy)quinazolin-2-yl]cyclohexane-1,4-diamine], the affinity, expressed as Ki, was 698 nM.

In the case of `CCN[C@H]1CC[C@H](Nc2ncc3cccc(OC4CCOC4)c3n2)CC1` (stereo partly drawn) [Example 192, trans-N-ethyl-N′-[8-(tetrahydrofuran-3-yloxy)quinazolin-2-yl]cyclohexane-1,4-diamine], affinity was put at a Ki of 1130 nM.

The compound `CC(C)N[C@H]1CC[C@H](Nc2ncc3cccc(OC4CCOC4)c3n2)CC1` (stereo partly drawn) [Example 193, trans-N-isopropyl-N′-[8-(tetrahydrofuran-3-yloxy)quinazolin-2-yl]cyclohexane-1,4-diamine] registered a Ki of 1410 nM.

Turning to `FCCN[C@H]1CC[C@H](Nc2ncc3cccc(OC4CCOC4)c3n2)CC1` (stereo partly drawn) [Example 194, trans-N-(2-fluoroethyl)-N′-[8-(tetrahydrofuran-3-yloxy)quinazolin-2-yl]cyclohexane-1,4-diamine], the affinity corresponds to a Ki of 1460 nM.

The compound `CS(=O)(=O)N1CCC(c2cccc3cnc(N[C@H]4CC[C@H](O)CC4)nc23)C1` (stereo partly drawn) [Example 195, trans-4-({8-[1-(methylsulfonyl)pyrrolidin-3-yl]quinazolin-2-yl}amino)cyclohexanol] displayed a Ki of 81 nM.

On to `COC(=O)N1CCC(c2cccc3cnc(N[C@H]4CC[C@H](O)CC4)nc23)C1` (stereo partly drawn) [Example 196, methyl 3-{2-[(trans-4-hydroxycyclohexyl)amino]quinazolin-8-yl}pyrrolidine-1-carboxylate], for which the Ki came to 56 nM.

The compound `CC(=O)N1CCC(c2cccc3cnc(N[C@H]4CC[C@H](O)CC4)nc23)C1` (some centres unmarked) [Example 197] returned a Ki of 143 nM.

As to `CNCCOc1ccc(-c2cccc3cnc(N[C@H]4CC[C@H](O)CC4)nc23)cc1` [Example 199, trans-4-[(8-{4-[2-(methylamino)ethoxy]phenyl}quinazolin-2-yl)amino]cyclohexanol], the Ki is 98 nM.

For `Cc1ccccc1-c1cccc2cnc(N[C@H]3CC[C@H](O)CC3)nc12` [Example 200, trans-4-{[8-(2-methylphenyl)quinazolin-2-yl]amino} cyclohexanol], the Ki came to 186 nM.

Consider `CN(C)CCOc1ccc(-c2cccc3cnc(N[C@H]4CC[C@H](O)CC4)nc23)cc1` [Example 201, trans-4-[(8-{4-[2-(dimethylamino)ethoxy]phenyl}quinazolin-2-yl)amino]cyclohexanol], for which the Ki amounted to 70 nM.

`NCCOc1ccc(-c2cccc3cnc(N[C@H]4CC[C@H](O)CC4)nc23)cc1` [Example 202, trans-4-({8-[4-(2-aminoethoxy)phenyl]quinazolin-2-yl}amino) cyclohexanol]: the Ki turned out to be 77 nM.

`Cc1cc(OCCN(C)C)ccc1-c1cccc2cnc(N[C@H]3CC[C@H](O)CC3)nc12` [Example 203, trans-4-[(8-{4-[2-(dimethylamino)ethoxy]-2-methylphenyl}quinazolin-2-yl)amino] cyclohexanol] showed a Ki of 815 nM.

The compound `COc1ccccc1-c1cccc2cnc(N[C@H]3CC[C@H](O)CC3)nc12` [Example 204, trans-4-{(8-(2-methoxyphenyl)quinazolin-2-yl]amino} cyclohexanol] gave a Ki of 303 nM.

`O[C@H]1CC[C@H](Nc2ncc3cccc(-c4ccccc4)c3n2)CC1` [Example 205, trans-4-[(8-phenylquinazolin-2-yl)amino] cyclohexanol]: the affinity corresponds to a Ki of 29 nM.

Take `CNC(=O)COc1c(C)ccc2cnc(N[C@H]3CC[C@H](O)CC3)nc12` [Example 206, 2-({2-[(trans-4-hydroxycyclohexyl)amino]-7-methylquinazolin-8-yl}oxy) N-methylacetamide]: the inhibition constant Ki is 495 nM.

`Cc1ccc2cnc(N[C@H]3CC[C@H](O)CC3)nc2c1OCC(=O)N(C)C` [Example 207, 2-({2-[(trans-4-hydroxycyclohexyl)amino]-7-methylquinazolin-8-yl}oxy)-N,N-dimethylacetamide] returned a Ki of 1060 nM.

For the compound `Cc1ccc2cnc(N[C@H]3CC[C@H](O)CC3)nc2c1OCC(=O)NC(C)C` [Example 208, 2-({2-[(trans-4-hydroxycyclohexyl)amino]-7-methylquinazolin-8-yl}oxy)-N-isopropylacetamide], the affinity corresponds to a Ki of 1130 nM.

`Cc1ccc2cnc(N[C@H]3CC[C@H](O)CC3)nc2c1OCC(=O)NC1CCOCC1` [Example 210, 2-({2-[(trans-4-hydroxycyclohexyl)amino]-7-methylquinazolin-8-yl}oxy)-N-(tetrahydro-2H-pyran-4-yl)acetamide]: the affinity, expressed as Ki, was 1710 nM.

Take `Cc1ccc2cnc(N[C@H]3CC[C@H](O)CC3)nc2c1OCC(=O)NC1CCS(=O)(=O)C1` (stereo partly drawn) [Example 211, N-(1,1-dioxidotetrahydro-3-thienyl)-2-({2-[(trans-4-hydroxycyclohexyl)amino]-7-methylquinazolin-8-yl}oxy)acetamide]: the affinity corresponds to a Ki of 1030 nM.

As to `Cc1ccc2cnc(N[C@H]3CC[C@H](O)CC3)nc2c1OCC(=O)N(C)CCO` [Example 212, 2-({2-[(trans-4-hydroxycyclohexyl)amino]-7-methylquinazolin-8-yl}oxy)-N-(2-hydroxyethyl)-N-methylacetamide], the Ki turned out to be 1950 nM.
